Measured values: patent US8969325B2, “TRPV1 antagonists” (AbbVie Inc., priority 2011, dated 2015)

Key:
human TRPV1 [1] = target: T1, human TRPV1 (Homo sapiens (Human), UniProt Q8NER1); assay: Capsaicin Activation Assay (intracellular Ca2+, FLIPR); assay type: cell-based; conditions: recombinant HEK293 cells expressing hTRPV1, 50 nM capsaicin
In short: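 Stably transfected HEK293 cells expressing human TRPV1 cDNA, plated the day before in poly-D-lysine plates. Compounds serially diluted from 10 mM DMSO stocks; intracellular Ca2+ fluorescence read on FLIPR at 1 to 5 second intervals.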

rats [2] = assay: Sodium iodoacetate-induced knee joint osteoarthritic pain model (hind limb grip force); assay type: in vivo; conditions: rat, po, single acute dose, 1 hour after administration, 20 days after sodium iodoacetate, read-out: % effect (% return to normalcy of hind limb grip force)
Procedure: Unilateral knee joint osteoarthritis was induced in the rats by a single intra-articular (i.a.) injection of sodium iodoacetate (3 mg in 0.05 mL sterile isotonic saline) into the right knee joint cavity under light isoflurane anesthesia using a 26 G needle. […] Pain behavioral assessment of hind limb grip force was conducted by recording the maximum compressive force exerted on the hind limb strain gauge setup, in a commercially available grip force measurement system (Columbus Instruments, Columbus, Ohio). The grip force data was converted to a maximum hindlimb cumulative compressive force (CFmax) (gram force)/kg body weight for each animal. The analgesic effects of test compounds were determined 20 days following the i.a. injection of sodium iodoacetate. The vehicle control group for each compound being tested was assigned 0% whereas the age matched naïve group was assigned as being 100% (normal). The % effect for each dose group was then expressed as % return to normalcy compared to the naïve group. Test compounds were administered orally in 10% ethanol/20% Tween 80/70% polyethylene glycol-400 vehicle at a volume of 2 mL/kg. The assessment of the analgesic effects of test compounds was made 1 hour following oral administration. The assessment of the analgesic effects of test compounds can be made following a single dose or following repeated administration wherein the frequency of dosing is 1 to 2 times daily. The duration of such repeated daily dosing may last for any time greater than one day. A typical duration of repeated daily dosing is about 5 days to about 12 days.

human TRPV1 [3] = target: T1, human TRPV1; assay: Acid Activation Assay (pH 5.0, intracellular Ca2+, FLIPR); assay type: cell-based; conditions: percentage of the maximal pH 5.0-induced response remaining; recombinant HEK293 hTRPV1 cells; maximum concentration tested 37.5 μM
In short: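 HEK293 cells stably expressing recombinant hTRPV1, loaded with Calcium-4 dye 90-120 min at 25° C. Compounds added over a 12-point half-log range (top 37.5 μM), then pH 5.0 DPBS/MES challenge after 3 min; FLIPR peak fluorescence over baseline given as % of maximal pH 5.0 response.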

rats [4] = assay: Rat acute capsaicin-induced flinching behavior; assay type: in vivo; conditions: 1 h, oral dose given as 100 nmol/kg, capsaicin 2.5 μg into hind paw one hour after compound, five minute observation, relative to control-treated animals, read-out: % effect (percent reduction in the number of flinching behaviors)
Procedure: Rats were placed in individual observation cages. Following an acclimation period of 30 minutes, selected compounds were administered orally at a dose of 100 nmol/kg in a vehicle (10% ethanol/20% Tween 80/70% polyethylene glycol-400) at a volume of 2 mL/kg. One hour after administration of the compound, 2.5 μg of capsaicin in a 10 μL solution of 10% ethanol/90% hydroxypropyl-β-cyclodextrin was injected subcutaneously into the dorsal aspect of the right hind paw. The observation cage was then suspended above mirrors in order to facilitate observation. […] The number of flinching behaviors of the injured paw was recorded during the five minute observation period (Gilchrist, H. D.; Allard, B. L.; Simone, D. A.; Enhanced withdrawal responses to heat and mechanical stimuli following intraplantar injection of capsaicin in rats. Pain, 1996, 67, 179-188). The percent reduction in the number of flinching behaviors produced from oral administration of the test compounds relative to control-treated animals (% effect) is reported in Table 2.

T1 sequence (Q8NER1 whole entry): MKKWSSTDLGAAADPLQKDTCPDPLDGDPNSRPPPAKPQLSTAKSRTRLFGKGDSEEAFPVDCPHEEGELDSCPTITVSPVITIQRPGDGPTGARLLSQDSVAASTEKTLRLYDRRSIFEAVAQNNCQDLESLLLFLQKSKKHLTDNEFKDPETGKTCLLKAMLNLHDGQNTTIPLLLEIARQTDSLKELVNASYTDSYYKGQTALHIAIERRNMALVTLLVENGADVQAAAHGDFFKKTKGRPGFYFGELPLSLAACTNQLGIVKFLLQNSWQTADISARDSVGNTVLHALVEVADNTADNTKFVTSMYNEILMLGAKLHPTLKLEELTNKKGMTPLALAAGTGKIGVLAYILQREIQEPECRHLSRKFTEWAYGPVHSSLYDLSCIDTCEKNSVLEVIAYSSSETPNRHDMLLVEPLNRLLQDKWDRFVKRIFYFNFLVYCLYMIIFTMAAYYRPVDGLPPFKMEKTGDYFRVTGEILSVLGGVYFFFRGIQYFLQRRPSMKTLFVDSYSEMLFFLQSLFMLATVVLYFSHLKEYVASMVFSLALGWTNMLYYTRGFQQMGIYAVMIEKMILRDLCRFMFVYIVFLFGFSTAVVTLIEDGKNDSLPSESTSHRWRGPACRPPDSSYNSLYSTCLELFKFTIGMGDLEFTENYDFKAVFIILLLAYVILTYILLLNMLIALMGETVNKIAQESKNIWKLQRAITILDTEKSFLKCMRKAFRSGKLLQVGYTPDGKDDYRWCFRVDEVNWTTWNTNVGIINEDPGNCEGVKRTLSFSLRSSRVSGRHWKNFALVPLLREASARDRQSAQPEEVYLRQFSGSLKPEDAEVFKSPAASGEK

With `CN1C(=O)NCc2c(NC(=O)N[C@@H]3CC(CF)(CF)Oc4cc(Cl)ccc43)cccc21` [Example 2, 1-[(4R)-7-chloro-2,2-bis(fluoromethyl)-3,4-dihydro-2H-chromen-4-yl]-3-(1-methyl-2-oxo-1,2,3,4-tetrahydroquinazolin-5-yl)urea] the IC50 (human TRPV1 [1]) was 36 nM, the inhibition in vivo at 14 mg/kg (rats [2]; 14 mg/kg) was 36% and the “human TRPV1 H^+ (max % remain)” value (human TRPV1 [3]) was 21%.

For `CN1C(=O)NCc2c(NC(=O)N[C@@H]3C[C@@](C)(C(F)F)Oc4ccccc43)cccc21` [Example 13, 1-[(2S,4R)-2-(difluoromethyl)-2-methyl-3,4-dihydro-2H-chromen-4-yl]-3-(1-methyl-2-oxo-1,2,3,4-tetrahydroquinazolin-5-yl)urea], the IC50 (human TRPV1 [1]) was 53 nM, the inhibition in vivo at 12 mg/kg (rats [2]; 12 mg/kg) was 63% and the “human TRPV1 H^+ (max % remain)” value (human TRPV1 [3]) was 41%.

With `CN1Cc2ccc(NC(=O)N[C@@H]3CCc4cc(Cl)ccc43)cc2NC1=O` [Example 17, 1-[(1R)-5-chloro-2,3-dihydro-1H-inden-1-yl]-3-(3-methyl-2-oxo-1,2,3,4-tetrahydroquinazolin-7-yl)urea] the IC50 (human TRPV1 [1]) was 70 nM, the “human TRPV1 H^+ (max % remain)” value (human TRPV1 [3]) was 54% and the inhibition in vivo at 0.1 µmol/kg (rats [4]) was 83%.

For `Cn1c(=O)ccc2c(NC(=O)N[C@@H]3CC(C)(C)Oc4cc(F)ccc43)cccc21` [Example 19, 1-[(4R)-7-fluoro-2,2-dimethyl-3,4-dihydro-2H-chromen-4-yl]-3-(1-methyl-2-oxo-1,2-dihydroquinolin-5-yl)urea], the “human TRPV1 H^+ (max % remain)” value (human TRPV1 [3]) was 38% and the inhibition in vivo at 0.1 µmol/kg (rats [4]) was 90%.

`O=C1CCc2ccc(NC(=O)N[C@@H]3CC(CF)(CF)Oc4cc(Cl)ccc43)cc2N1` [Example 31, 1-[(4R)-7-chloro-2,2-bis(fluoromethyl)-3,4-dihydro-2H-chromen-4-yl]-3-(2-oxo-1,2,3,4-tetrahydroquinolin-7-yl)urea] was tested, and the inhibition in vivo at 10 mg/kg (rats [2]) was 24% and the “human TRPV1 H^+ (max % remain)” value (human TRPV1 [3]) was 36%.

In the case of `CC1(C)C[C@@H](NC(=O)Nc2ccc3c(c2)NC(=O)CC3)c2ccc(C(F)(F)F)cc2O1` [Example 32, 1-[(4R)-2,2-dimethyl-7-(trifluoromethyl)-3,4-dihydro-2H-chromen-4-yl]-3-(2-oxo-1,2,3,4-tetrahydroquinolin-7-yl)urea], the IC50 (human TRPV1 [1]) is reported as 36 nM, the inhibition in vivo at 10 mg/kg (rats [2]) is reported as 22% and the “human TRPV1 H^+ (max % remain)” value (human TRPV1 [3]) is reported as 37%.

`C[C@]1(C(F)(F)F)C[C@@H](NC(=O)Nc2ccc3c(c2)NC(=O)CC3)c2ccccc2O1` [Example 34, 1-[(2R,4R)-2-methyl-2-(trifluoromethyl)-3,4-dihydro-2H-chromen-4-yl]-3-(2-oxo-1,2,3,4-tetrahydroquinolin-7-yl)urea] was tested, and the IC50 (human TRPV1 [1]) was 7 nM, the inhibition in vivo at 10 mg/kg (rats [2]) was 46% and the “human TRPV1 H^+ (max % remain)” value (human TRPV1 [3]) was 34%.

In the case of `O=C1CCc2ccc(NC(=O)N[C@@H]3CCc4cc(C(F)(F)F)ccc43)cc2N1` [Example 35, 1-(2-oxo-1,2,3,4-tetrahydroquinolin-7-yl)-3-[(1R)-5-(trifluoromethyl)-2,3-dihydro-1H-inden-1-yl]urea], the IC50 (human TRPV1 [1]) is reported as 4 nM, the inhibition in vivo at 10 mg/kg (rats [2]) is reported as 42% and the “human TRPV1 H^+ (max % remain)” value (human TRPV1 [3]) is reported as 38%.

For `CC1(C)C[C@@H](NC(=O)Nc2ccc3c(c2)NC(=O)CC3)c2ccc(Cl)c(F)c2O1` [Example 39, 1-[(4R)-7-chloro-8-fluoro-2,2-dimethyl-3,4-dihydro-2H-chromen-4-yl]-3-(2-oxo-1,2,3,4-tetrahydroquinolin-7-yl)urea], the IC50 (human TRPV1 [1]) was 14 nM, the inhibition in vivo at 10 mg/kg (rats [2]) was 50% and the “human TRPV1 H^+ (max % remain)” value (human TRPV1 [3]) was 34%.

`CCC1(CC)C[C@@H](NC(=O)Nc2ccc3c(c2)NC(=O)CC3)c2cccc(F)c2O1` [Example 222, 1-[(4R)-2,2-diethyl-8-fluoro-3,4-dihydro-2H-chromen-4-yl]-3-(2-oxo-1,2,3,4-tetrahydroquinolin-7-yl)urea] was tested, and the IC50 (human TRPV1 [1]) was 32 nM, the inhibition in vivo at 10 mg/kg (rats [2]) was 26% and the “human TRPV1 H^+ (max % remain)” value (human TRPV1 [3]) was 30%.

With `O=C1CCc2ccc(NC(=O)N[C@@H]3CCc4cc(Cl)ccc43)cc2N1` [Example 251, 1-[(1R)-5-chloro-2,3-dihydro-1H-inden-1-yl]-3-(2-oxo-1,2,3,4-tetrahydroquinolin-7-yl)urea] the IC50 (human TRPV1 [1]) was 78 nM, the inhibition in vivo at 10 mg/kg (rats [2]) was 38% and the “human TRPV1 H^+ (max % remain)” value (human TRPV1 [3]) was 26%.

For `C[C@@]1(C(F)F)C[C@@H](NC(=O)Nc2ccc3c(c2)NC(=O)N(CCO)C3)c2ccccc2O1` [Example 318, 1-[(2S,4R)-2-(difluoromethyl)-2-methyl-3,4-dihydro-2H-chromen-4-yl]-3-[3-(2-hydroxyethyl)-2-oxo-1,2,3,4-tetrahydroquinazolin-7-yl]urea], the IC50 (human TRPV1 [1]) was 590 nM and the “human TRPV1 H^+ (max % remain)” value (human TRPV1 [3]) was 14%.

In the case of `O=C(Nc1ccc2c(c1)NC(=O)N(CCO)C2)N[C@@H]1CC(CF)(CF)Oc2cc(F)ccc21` [Example 319, 1-[(4R)-7-fluoro-2,2-bis(fluoromethyl)-3,4-dihydro-2H-chromen-4-yl]-3-[3-(2-hydroxyethyl)-2-oxo-1,2,3,4-tetrahydroquinazolin-7-yl]urea], the IC50 (human TRPV1 [1]) is reported as 5000 nM and the “human TRPV1 H^+ (max % remain)” value (human TRPV1 [3]) is reported as 21%.

With `O=C1CCc2ccc(NC(=O)N[C@@H]3CC(CF)(CF)Oc4cc(C(F)(F)F)ccc43)cc2N1` [Example 320, 1-[(4R)-2,2-bis(fluoromethyl)-7-(trifluoromethyl)-3,4-dihydro-2H-chromen-4-yl]-3-(2-oxo-1,2,3,4-tetrahydroquinolin-7-yl)urea] the IC50 (human TRPV1 [1]) was 12 nM and the “human TRPV1 H^+ (max % remain)” value (human TRPV1 [3]) was 80%.

In the case of `C[C@]1(C(F)F)C[C@@H](NC(=O)Nc2ccc3c(c2)NC(=O)CO3)c2ccc(Cl)cc2O1` [Example 321, 1-[(2R,4R)-7-chloro-2-(difluoromethyl)-2-methyl-3,4-dihydro-2H-chromen-4-yl]-3-(3-oxo-3,4-dihydro-2H-1,4-benzoxazin-6-yl)urea], the IC50 (human TRPV1 [1]) is reported as 21 nM, the inhibition in vivo at 10 mg/kg (rats [2]) is reported as 31% and the “human TRPV1 H^+ (max % remain)” value (human TRPV1 [3]) is reported as 87%.

In the case of `C[C@@]1(C(F)F)C[C@@H](NC(=O)Nc2ccc3c(c2)NC(=O)CO3)c2ccc(Cl)cc2O1` [Example 322, 1-[(2S,4R)-7-chloro-2-(difluoromethyl)-2-methyl-3,4-dihydro-2H-chromen-4-yl]-3-(3-oxo-3,4-dihydro-2H-1,4-benzoxazin-6-yl)urea], the IC50 (human TRPV1 [1]) is reported as 46 nM and the “human TRPV1 H^+ (max % remain)” value (human TRPV1 [3]) is reported as 76%.

`O=C1COc2c(cccc2NC(=O)N[C@@H]2CC(CF)(CF)Oc3cc(Cl)ccc32)N1` [Example 323, 1-[(4R)-7-chloro-2,2-bis(fluoromethyl)-3,4-dihydro-2H-chromen-4-yl]-3-(3-oxo-3,4-dihydro-2H-1,4-benzoxazin-8-yl)urea] was tested, and the IC50 (human TRPV1 [1]) was 4.5 nM and the “human TRPV1 H^+ (max % remain)” value (human TRPV1 [3]) was 0%.

With `O=C1COc2ccc(NC(=O)N[C@@H]3CC(CF)(CF)Oc4cc(C(F)(F)F)ccc43)cc2N1` [Example 324, 1-[(4R)-2,2-bis(fluoromethyl)-7-(trifluoromethyl)-3,4-dihydro-2H-chromen-4-yl]-3-(3-oxo-3,4-dihydro-2H-1,4-benzoxazin-6-yl)urea] the IC50 (human TRPV1 [1]) was 19 nM, the inhibition in vivo at 10 mg/kg (rats [2]) was 67% and the “human TRPV1 H^+ (max % remain)” value (human TRPV1 [3]) was 96%.

For `CC1(C)C[C@@H](NC(=O)Nc2ccc3c(c2)NC(=O)CO3)c2ccc(Cl)c(F)c2O1` [Example 325, 1-[(4R)-7-chloro-8-fluoro-2,2-dimethyl-3,4-dihydro-2H-chromen-4-yl]-3-(3-oxo-3,4-dihydro-2H-1,4-benzoxazin-6-yl)urea], the IC50 (human TRPV1 [1]) was 21 nM and the “human TRPV1 H^+ (max % remain)” value (human TRPV1 [3]) was 83%.

With `CN1C(=O)CCc2ccc(NC(=O)N[C@@H]3C[C@](C)(C(F)(F)F)Oc4ccccc43)cc21` [Example 326, 1-(1-methyl-2-oxo-1,2,3,4-tetrahydroquinolin-7-yl)-3-[(2R,4R)-2-methyl-2-(trifluoromethyl)-3,4-dihydro-2H-chromen-4-yl]urea] the IC50 (human TRPV1 [1]) was 32 nM and the “human TRPV1 H^+ (max % remain)” value (human TRPV1 [3]) was 80%.
